Measurements from PubChem BioAssay (NCI).
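Briefly, cells in 96-well plates were exposed to five compound concentrations for 48 h, and endpoints were estimated by linear interpolation. TGI marks complete inhibition of growth.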

Columns and labels:
Assay in all cases: inhibition of tumour cell growth, NCI panel, 48 h
OVCAR-5 ovarian = test system: OVCAR-5 ovarian
HS 578T breast = test system: HS 578T breast
KM12 colon = test system: KM12 colon
OVCAR-8 ovarian = test system: OVCAR-8 ovarian
BT-549 breast = test system: BT-549 breast
SR leukemia = test system: SR leukemia
CAKI-1 renal = test system: CAKI-1 renal
HCT-15 colon = test system: HCT-15 colon
SK-MEL-2 melanoma = test system: SK-MEL-2 melanoma
A549 NSCLC = test system: A549 NSCLC
MDA-MB-435 = test system: MDA-MB-435
ACHN renal = test system: ACHN renal
RXF 393 renal = test system: RXF 393 renal
HOP-62 NSCLC = test system: HOP-62 NSCLC
DU-145 prostate = test system: DU-145 prostate
NCI-H522 lung = test system: NCI-H522 lung
HOP-92 NSCLC = test system: HOP-92 NSCLC
HCT-116 colon = test system: HCT-116 colon
NCI-H460 lung = test system: NCI-H460 lung
T-47D breast = test system: T-47D breast
HCC-2998 colon = test system: HCC-2998 colon
CCRF-CEM leukemia = test system: CCRF-CEM leukemia
UO-31 renal = test system: UO-31 renal
786-0 renal = test system: 786-0 renal
SF-268 CNS = test system: SF-268 CNS
SF-295 CNS = test system: SF-295 CNS
COLO 205 colon = test system: COLO 205 colon
SK-OV-3 ovarian = test system: SK-OV-3 ovarian
UACC-257 melanoma = test system: UACC-257 melanoma
MDA-MB-231 breast = test system: MDA-MB-231 breast
EKVX NSCLC = test system: EKVX NSCLC
A498 renal = test system: A498 renal
SW-620 colon = test system: SW-620 colon
RPMI-8226 leukemia = test system: RPMI-8226 leukemia
MALME-3M melanoma = test system: MALME-3M melanoma
MCF7 breast = test system: MCF7 breast
SN12C renal = test system: SN12C renal
SNB-19 CNS = test system: SNB-19 CNS
SK-MEL-28 melanoma = test system: SK-MEL-28 melanoma
MDA-N = test system: MDA-N
SK-MEL-5 melanoma = test system: SK-MEL-5 melanoma
SF-539 CNS = test system: SF-539 CNS
M14 melanoma = test system: M14 melanoma
OVCAR-4 ovarian = test system: OVCAR-4 ovarian
NCI-H226 lung = test system: NCI-H226 lung
U251 CNS = test system: U251 CNS
NCI/ADR-RES ovarian = test system: NCI/ADR-RES ovarian
PC-3 prostate = test system: PC-3 prostate
LOX IMVI melanoma = test system: LOX IMVI melanoma
MOLT-4 leukemia = test system: MOLT-4 leukemia
K-562 leukemia = test system: K-562 leukemia
OVCAR-3 ovarian = test system: OVCAR-3 ovarian
UACC-62 melanoma = test system: UACC-62 melanoma
TK-10 renal = test system: TK-10 renal
SNB-75 CNS = test system: SNB-75 CNS
NCI-H23 lung = test system: NCI-H23 lung
IGROV1 ovarian = test system: IGROV1 ovarian
HL-60(TB) leukemia = test system: HL-60(TB) leukemia
HT29 colon = test system: HT29 colon

`CC1OC(OC2C(O)COC(OC3C(C)OC(OC4C(OC(=O)[C@]56CCC(C)(C)C[C@@H]5C5=CCC7[C@@]8(C)C[C@H](O)[C@H](OC9OC(CO)C(O)C(O)C9O)[C@@](C)(CO)[C@@H]8CC[C@@]7(C)[C@]5(C)CC6)OCC(O)C4O)C(O)C3OC3OCC(O)C(O)C3O)C2O)C(O)C(O)C1O` (stereo partly specified) showed a TGI (OVCAR-5 ovarian) of 30.2 µM, a TGI (HS 578T breast) of 63.9 µM and a TGI (KM12 colon) of 72.9 µM. It also gave a TGI (OVCAR-8 ovarian) of 37.3 µM, a TGI (BT-549 breast) of 52.6 µM and a TGI (SR leukemia) of 46.1 µM. For the same compound, the TGI (CAKI-1 renal) was 26.8 µM, the TGI (HCT-15 colon) was 51.4 µM and the TGI (SK-MEL-2 melanoma) was 37.9 µM. It also gave a TGI (A549 NSCLC) of 28.2 µM, a TGI (MDA-MB-435) of 44.8 µM and a TGI (ACHN renal) of 36.1 µM. It also gave a TGI (RXF 393 renal) of 34.1 µM, a TGI (HOP-62 NSCLC) of 35.4 µM and a TGI (DU-145 prostate) of 36.2 µM. It also gave a TGI (NCI-H522 lung) of 62.4 µM, a TGI (HOP-92 NSCLC) of 44 µM and a TGI (HCT-116 colon) of 38.5 µM. The TGI (NCI-H460 lung) was 41.6 µM, the TGI (T-47D breast) was 44.8 µM and the TGI (HCC-2998 colon) was 33.9 µM. It also gave a TGI (CCRF-CEM leukemia) of 34.9 µM, a TGI (UO-31 renal) of 17.6 µM and a TGI (786-0 renal) of 29.2 µM. For the same compound, the TGI (SF-268 CNS) was 47.5 µM, the TGI (SF-295 CNS) was 39.2 µM and the TGI (COLO 205 colon) was 19.3 µM. The TGI (SK-OV-3 ovarian) was 34.7 µM, the TGI (UACC-257 melanoma) was 31.7 µM and the TGI (MDA-MB-231 breast) was 31 µM. For the same compound, the TGI (EKVX NSCLC) was 23.8 µM, the TGI (A498 renal) was 32.7 µM and the TGI (SW-620 colon) was 32.2 µM. The TGI (RPMI-8226 leukemia) was over 100 µM, the TGI (MALME-3M melanoma) was 54.7 µM and the TGI (MCF7 breast) was 43.8 µM. For the same compound, the TGI (SN12C renal) was 35 µM, the TGI (SNB-19 CNS) was 33.7 µM and the TGI (SK-MEL-28 melanoma) was 25.9 µM. It also gave a TGI (MDA-N) of 35.2 µM, a TGI (SK-MEL-5 melanoma) of 36.2 µM and a TGI (SF-539 CNS) of 36.3 µM. It also gave a TGI (M14 melanoma) of 23.2 µM, a TGI (OVCAR-4 ovarian) of 48.8 µM and a TGI (NCI-H226 lung) of 46.1 µM. It also gave a TGI (U251 CNS) of 39.1 µM, a TGI (NCI/ADR-RES ovarian) of 46 µM and a TGI (PC-3 prostate) of 29.5 µM. The TGI (LOX IMVI melanoma) was 37 µM, the TGI (MOLT-4 leukemia) was 46 µM and the TGI (K-562 leukemia) was over 100 µM. It also gave a TGI (OVCAR-3 ovarian) of 37.9 µM, a TGI (UACC-62 melanoma) of 41.1 µM and a TGI (TK-10 renal) of 33 µM. It also gave a TGI (SNB-75 CNS) of 41.1 µM and a TGI (NCI-H23 lung) of 40.8 µM.

`NCCN1C(=O)c2cc(Cl)c(Cl)cc2C1(O)c1ccc(Cl)cc1` (stereo unspecified) showed a TGI (OVCAR-5 ovarian) of 12.2 µM, a TGI (HS 578T breast) of 8.44 µM and a TGI (KM12 colon) of 4.17 µM. It also gave a TGI (OVCAR-8 ovarian) of 3.92 µM, a TGI (BT-549 breast) of 13.4 µM and a TGI (SR leukemia) of 3.96 µM. It also gave a TGI (CAKI-1 renal) of 7.02 µM, a TGI (HCT-15 colon) of 5.33 µM and a TGI (SK-MEL-2 melanoma) of 3.63 µM. It also gave a TGI (A549 NSCLC) of 4.76 µM, a TGI (MDA-MB-435) of 3.13 µM and a TGI (ACHN renal) of 4.75 µM. It also gave a TGI (RXF 393 renal) of 3.06 µM, a TGI (HOP-62 NSCLC) of 4.21 µM and a TGI (DU-145 prostate) of 6.81 µM. It also gave a TGI (HOP-92 NSCLC) of 12.5 µM, a TGI (HCT-116 colon) of 3.09 µM and a TGI (NCI-H460 lung) of 3.64 µM. It also gave a TGI (T-47D breast) of 4.55 µM, a TGI (IGROV1 ovarian) of 4.89 µM and a TGI (CCRF-CEM leukemia) of 10.1 µM. The TGI (UO-31 renal) was 17.2 µM, the TGI (786-0 renal) was 2.96 µM and the TGI (SF-268 CNS) was 6.65 µM. It also gave a TGI (SF-295 CNS) of 3.9 µM, a TGI (HL-60(TB) leukemia) of 3.44 µM and a TGI (COLO 205 colon) of 3.02 µM. For the same compound, the TGI (SK-OV-3 ovarian) was 26.3 µM, the TGI (UACC-257 melanoma) was 3.47 µM and the TGI (MDA-MB-231 breast) was 3.75 µM. It also gave a TGI (EKVX NSCLC) of 6.75 µM, a TGI (A498 renal) of 10.2 µM and a TGI (SW-620 colon) of 3.7 µM. It also gave a TGI (RPMI-8226 leukemia) of 5.39 µM, a TGI (MALME-3M melanoma) of 3.49 µM and a TGI (MCF7 breast) of 3.73 µM. For the same compound, the TGI (SN12C renal) was 13.4 µM, the TGI (SNB-19 CNS) was 7.73 µM and the TGI (SK-MEL-28 melanoma) was 3.21 µM. The TGI (MDA-N) was 3.47 µM, the TGI (SK-MEL-5 melanoma) was 2.99 µM and the TGI (SF-539 CNS) was 3.1 µM. For the same compound, the TGI (M14 melanoma) was 3.23 µM, the TGI (OVCAR-4 ovarian) was 4.24 µM and the TGI (U251 CNS) was 3.17 µM. It also gave a TGI (NCI/ADR-RES ovarian) of 7.25 µM, a TGI (PC-3 prostate) of 19.3 µM and a TGI (LOX IMVI melanoma) of 3.28 µM. It also gave a TGI (MOLT-4 leukemia) of 5.28 µM, a TGI (K-562 leukemia) of 4.09 µM and a TGI (OVCAR-3 ovarian) of 4.74 µM. The TGI (UACC-62 melanoma) was 3.25 µM, the TGI (HT29 colon) was 3.81 µM and the TGI (TK-10 renal) was 3.53 µM. The TGI (SNB-75 CNS) was 8.26 µM and the TGI (NCI-H23 lung) was 6.78 µM.

Work on `CC(=O)/C(N=Nc1ccc(-n2c(C)nc3ccccc3c2=O)cc1)=C(/C)O` yielded a TGI (OVCAR-5 ovarian) of over 100 µM, a TGI (HS 578T breast) of over 100 µM and a TGI (KM12 colon) of over 100 µM. For the same compound, the TGI (OVCAR-8 ovarian) was over 100 µM, the TGI (BT-549 breast) was over 100 µM and the TGI (SR leukemia) was over 100 µM. The TGI (CAKI-1 renal) was over 100 µM, the TGI (HCT-15 colon) was over 100 µM and the TGI (SK-MEL-2 melanoma) was over 100 µM. It also gave a TGI (A549 NSCLC) of over 100 µM, a TGI (MDA-MB-435) of over 100 µM and a TGI (ACHN renal) of over 100 µM. The TGI (HOP-62 NSCLC) was over 100 µM, the TGI (DU-145 prostate) was over 100 µM and the TGI (HOP-92 NSCLC) was over 100 µM. The TGI (HCT-116 colon) was over 100 µM, the TGI (NCI-H460 lung) was over 100 µM and the TGI (T-47D breast) was over 100 µM. It also gave a TGI (IGROV1 ovarian) of over 100 µM, a TGI (CCRF-CEM leukemia) of over 100 µM and a TGI (UO-31 renal) of over 100 µM. For the same compound, the TGI (786-0 renal) was over 100 µM, the TGI (SF-268 CNS) was over 100 µM and the TGI (SF-295 CNS) was over 100 µM. For the same compound, the TGI (HL-60(TB) leukemia) was over 100 µM, the TGI (COLO 205 colon) was over 100 µM and the TGI (SK-OV-3 ovarian) was over 100 µM. It also gave a TGI (UACC-257 melanoma) of over 100 µM, a TGI (MDA-MB-231 breast) of over 100 µM and a TGI (EKVX NSCLC) of over 100 µM. The TGI (A498 renal) was over 100 µM, the TGI (SW-620 colon) was over 100 µM and the TGI (RPMI-8226 leukemia) was over 100 µM. For the same compound, the TGI (MCF7 breast) was over 100 µM, the TGI (SN12C renal) was over 100 µM and the TGI (SNB-19 CNS) was over 100 µM. It also gave a TGI (SK-MEL-28 melanoma) of over 100 µM, a TGI (MDA-N) of over 100 µM and a TGI (SK-MEL-5 melanoma) of over 100 µM. It also gave a TGI (SF-539 CNS) of over 100 µM, a TGI (M14 melanoma) of over 100 µM and a TGI (NCI-H226 lung) of over 100 µM. The TGI (U251 CNS) was over 100 µM, the TGI (NCI/ADR-RES ovarian) was over 100 µM and the TGI (PC-3 prostate) was over 100 µM. It also gave a TGI (LOX IMVI melanoma) of over 100 µM, a TGI (MOLT-4 leukemia) of over 100 µM and a TGI (K-562 leukemia) of over 100 µM. For the same compound, the TGI (OVCAR-3 ovarian) was over 100 µM, the TGI (UACC-62 melanoma) was over 100 µM and the TGI (HT29 colon) was over 100 µM. The TGI (TK-10 renal) was over 100 µM, the TGI (SNB-75 CNS) was over 100 µM and the TGI (NCI-H23 lung) was over 100 µM.
